SMILES strings stand for the structures. Entries after “also recorded” stand apart in the source; their conditions may differ.

The test system of the first test is protein kinase. In words: HTS ATP-utilizing enzyme assay, off-chip mobility-shift format (Caliper HTS 250). The class given is biochemical, human.
Conditions: not given
The essentials: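 Single-point screen at 10 μM compound in HEPES pH 7.5 buffer with Triton X-100 and BSA, 2.5 h at 20–22 °C. Substrate-to-phosphopeptide ratio measured by off-chip microfluidic mobility shift; EDTA wells as 100% and DMSO wells as 0% control, hits called at three-sigma limits.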
With `COc1ccccc1-n1c(SCCCCc2ccccc2)nnc1-c1ccc(N)nc1`, the “protein kinase against which the compound exhibits inhibitory activity (Table 3)” value is recorded as “MAPKAPK-3”.

The same test, now with this note: kinase(s) for which the compound exhibits protein kinase inhibitory activity; test compound 10 μM; active = greater than three-sigma from the mean activity of inactive compounds.
Regarding `Cn1c(SCC(=O)Nc2cccc(NC(=O)c3ccco3)c2)nnc1-c1ccncc1`, the Kinase entry is “GSK3-β; also recorded: AURORA-A; also recorded: GSK3-α”. Same read-out and setting: under `COc1cc(NC(=O)c2ccco2)c(OC)cc1NC(=O)CSc1nnc(-c2cccs2)n1C` stands “PDGFRR-α”; under `Cc1ccc(NCc2nnc(SCC(=O)N3c4ccccc4Sc4ccccc43)n2C)cc1`, “DAPK1”. As to `CCn1c(CNc2ccc(C)cc2)nnc1SCC#N` [2-(5-((p-toluidino)methyl)-4-ethyl-4H-1,2,4-triazol-3-ylthio)acetonitrile], the Kinase result is “PDGFRR-α and CDK1”. For the compound `COc1ccc(CCNC(=O)CSc2nnc(-c3cc4ccccc4cc3O)n2C)cc1OC`, the Kinase result is reported as “FYN”.

Regarding `COc1ccc(-n2c(SC(C)C(=O)O)nnc2-c2ccccc2)cc1` (stereo not drawn) [2-(4-(4-methoxyphenyl)-5-phenyl-4H-1,2,4-triazol-3-ylthio)propanoic acid], the Kinase entry is reported as “AURORA-A”. On to `COc1ccccc1-n1c(SCC(=O)Nc2cccc(C(=O)O)c2)nnc1-c1ccccc1O`, for which the Kinase result is given as “AURORA-A”. The same measure, in the same setting: to `CCn1c(SCC(=O)Nc2sc3c(c2C#N)CCCC3)nnc1-c1ccc(O)cc1` belongs “AURORA-A”.

Take `COc1ccc(-n2c(SC(C)C(=O)Nc3ccc(C(C)=O)cc3)nnc2-c2ccc(O)cc2)cc1` (stereo not drawn): the Kinase result is on record as “GSK3-β; also recorded: GSK3-α”. For `C=C(C)Cn1c(SCC(=O)O)nnc1-c1ccco1` [2-(5-(furan-2-yl)-4-(2-methylallyl)-4H-1,2,4-triazol-3-ylthio)acetic acid], the Kinase result is “HCK and CHEK2”.

Take `CCOC(=O)c1sc(NC(=O)CSc2nnc(-c3ccc(OC)cc3)n2CCOC)nc1C`: the Kinase entry is given as “GSK3-β; also recorded: GSK3-α”. Turning to `COc1ccc(NCc2nnc(SCC#N)n2-c2ccccc2OC)cc1`, the Kinase result is “FYN”. On the same count and under the same terms, to `Cn1c(SCC(=O)N2CCCc3ccccc32)nnc1-c1cc2ccccc2cc1O` belongs “FYN and AURORA-A and DAPK1”; to `Cn1c(SCC(=O)NCc2ccco2)nnc1-c1ccc(NC(=O)c2ccccc2)cc1`, “CHEK2”. Turning to `Fc1ccc(NCc2nnc(S)n2Cc2ccccc2)cc1` [4-benzyl-5-((4-fluorophenylamino)methyl)-4H-1,2,4-triazole-3-thiol], the Kinase entry is on record as “CHEK2”. As to `COc1ccc(C(=O)CSc2nnc(-c3cc4ccccc4cc3O)n2Cc2ccco2)cc1`, the Kinase result was “AURORA-A”. On the same count and under the same terms, to `O=C(CSc1nnc(-c2ccncc2)n1Cc1ccco1)Nc1cccc(O)c1` belongs “GSK3-β and GSK3-α and AKT3”. Still for that read-out and setting: to `CCn1c(COc2ccccc2)nnc1SCC(=O)Nc1sc2c(c1C#N)CCCC2` belongs “AKT1”; to `NC(=O)c1c(NC(=O)CSc2nnc(-c3ccccc3)n2Cc2ccco2)sc2c1CCC2`, “GSK3-α and GSK3-β and PAK2”. Same read-out and setting: to `CCn1c(COc2ccc(Cl)c(C)c2)nnc1SCC(=O)N1CCCCC1` belongs “FYN”; to `COc1ccc(-c2nnc(SCC(=O)O)n2-c2ccccc2)cc1OC` [2-(5-(3,4-dimethoxyphenyl)-4-phenyl-4H-1,2,4-triazol-3-ylthio)acetic acid], “FYN”; to `NC(=O)CSc1nnc(-c2ccc(S(=O)(=O)N3CCCCC3)cc2)[nH]1` [2-(5-(4-(piperidin-1-ylsulfonyl)phenyl)-4H-1,2,4-triazol-3-ylthio)acetamide], “GSK3-β; also recorded: AURORA-A; also recorded: GSK3-α”.

`COCCCn1c(C)nnc1SCC(=O)Nc1ccccc1[N+](=O)[O-]`: the Kinase entry is “FYN”. The same measure, in the same setting: under `Cc1ccc(NCc2nnc(SCC#N)n2-c2ccccc2)c(C)c1` stands “AKT1”; under `N#CCSc1nnc(-c2ccc(F)cc2)[nH]1` [2-(5-(4-fluorophenyl)-4H-1,2,4-triazol-3-ylthio)acetonitrile], “FLT-3; also recorded: DYRK2; also recorded: GSK3-β”. Take `CCOC(=O)c1c(NC(=O)CSc2nnc(CNc3ccc(OC)cc3)n2C)sc(C)c1C`: the Kinase result was “PDGFRR-α; also recorded: FLT-3; also recorded: AURORA-A”. Still for that read-out and setting: to `Nc1nncn1C(=O)Cc1ccc(Cl)cc1` [1-(3-amino-4H-1,2,4-triazol-4-yl)-2-(4-chlorophenyl)ethanone] belongs “GSK-3-α; also recorded: GSK-3-β”. On the same count and under the same terms, under `CCc1nnc(NC(=O)CSc2nnc(-c3ccc(O)cc3)n2-c2ccc(OC)cc2)s1` stands “GSK3-β and GSK3-α and AKT1”; under `CC(C)(C)c1nnc(SCC(=O)c2ccc3c(c2)OCCO3)[nH]1`, “DYRK2; also recorded: GSK3-α”.

For the compound `COc1ccc(NCc2nnc(SCC(=O)NCc3ccco3)n2-c2ccccc2OC)cc1`, the Kinase entry is “PDGFRR-α and FYN”. In the case of `O=C(CSc1nnc(-c2cccnc2)[nH]1)c1ccccc1` [1-phenyl-2-(5-(pyridin-3-yl)-4H-1,2,4-triazol-3-ylthio)ethanone], the Kinase entry is “AURORA-A”.

Regarding `O=c1c(Sc2nnc(-c3ccccc3)n2C2CCCCC2)c(Br)cnn1-c1ccccc1`, the Kinase result is “GSK3-α”. For `CCOC(=O)CN(C(=O)CSc1nnc(CNc2ccc(F)cc2)n1-c1ccccc1)c1ccccc1`, the Kinase entry is recorded as “LCK”. Still for that read-out and setting: to `N#CCSc1nnc(-c2ccco2)n1-c1ccccc1` [2-(5-(furan-2-yl)-4-phenyl-4H-1,2,4-triazol-3-ylthio)acetonitrile] belongs “CHEK2”. On the same count and under the same terms, to `N#CCSc1nnc(CNc2ccc(Cl)cc2)n1Cc1ccccc1` belongs “MSK1”.

The test is the same for the next values; noted with them: test compound 10 μM; active = activity greater than three-sigma from the mean of the predominately inactive population for that enzyme.
Take `CSc1nnc(-c2ccc(O)cc2)n1Cc1ccccc1` [4-(4-benzyl-5-(methylthio)-4H-1,2,4-triazol-3-yl)phenol]: the “protein kinase against which the compound exhibits inhibitory activity (Table 3)” value is “GSK3-α; also recorded: GSK3-β”. For the compound `Cn1c(Cn2nnc3ccccc32)nnc1SCC(=O)C1c2ccccc2CCc2ccccc21`, the “protein kinase against which the compound exhibits inhibitory activity (Table 3)” value is recorded as “MAPKAPK-2”. Turning to `O=C(O)c1ccc(CSc2nnc(-c3cccc(Cl)c3)[nH]2)cc1` [4-((5-(3-chlorophenyl)-4H-1,2,4-triazol-3-ylthio)methyl)benzoic acid], the “protein kinase against which the compound exhibits inhibitory activity (Table 3)” value was “FLT-3; also recorded: DYRK2; also recorded: AURORA-A”.

For the compound `CCn1c(SCc2ccc(-c3csnn3)cc2)nnc1-c1cc(-c2ccccc2)nc2ccccc12`, the “protein kinase against which the compound exhibits inhibitory activity (Table 3)” value is “c-TAK1”. In the case of `O=[N+]([O-])c1ccc(-c2nnc(SCc3ccncc3)[nH]2)cc1` [4-((5-(4-nitrophenyl)-4H-1,2,4-triazol-3-ylthio)methyl)pyridine], the “protein kinase against which the compound exhibits inhibitory activity (Table 3)” value is on record as “FLT-3; also recorded: GSK3-β; also recorded: GSK3-α”. Same read-out and setting: under `Oc1ccc(-c2nnc(SCc3ccccc3)n2Cc2ccccc2)cc1` [4-(4-benzyl-5-(benzylthio)-4H-1,2,4-triazol-3-yl)phenol] stands “GSK3-β and GSK3-α and LYNA”; under `c1csc(-c2nnc(SCC3CCCCC3)[nH]2)c1` [3-(cyclohexylmethylthio)-5-(thiophen-2-yl)-4H-1,2,4-triazole], “AURORA-A; also recorded: DYRK2”; under `COc1ccc(-c2nnc(SCc3ccccc3)n2-c2ccccc2)cc1` [3-(benzylthio)-5-(4-methoxyphenyl)-4-phenyl-4H-1,2,4-triazole], “INSR and SYK and PAK2”. Same read-out and setting: to `CCOCCSc1nnc(-c2cccs2)[nH]1` [3-(2-ethoxyethylthio)-5-(thiophen-2-yl)-4H-1,2,4-triazole] belongs “AURORA-A; also recorded: DYRK2; also recorded: GSK3-β”; to `Cc1ccc(-c2nnc(SCCC(=O)O)n2-c2ccc(C)cc2)cc1` [3-(4,5-dip-tolyl-4H-1,2,4-triazol-3-ylthio)propanoic acid], “DAPK1”.

Regarding `Clc1ccc(Cn2c(SCc3ccccc3)nnc2C2CCCCC2)cc1Cl` [3-(benzylthio)-5-cyclohexyl-4-(3,4-dichlorobenzyl)-4H-1,2,4-triazole], the “protein kinase against which the compound exhibits inhibitory activity (Table 3)” value was “c-TAK1”. On to `Cn1c(COc2ccccc2)nnc1SCc1cc(=O)[nH]c2ccccc12`, for which the “protein kinase against which the compound exhibits inhibitory activity (Table 3)” value is reported as “GSK3a”.

Take `CSCCc1nnc(SCC(O)C(F)(F)F)[nH]1` (stereo not drawn): the “protein kinase against which the compound exhibits inhibitory activity (Table 3)” value is “GSK3-α”.

With `CCn1c(SCc2ccc(Cl)cc2)nnc1-c1ccncc1` [4-(5-(4-chlorobenzylthio)-4-ethyl-4H-1,2,4-triazol-3-yl)pyridine], the “protein kinase against which the compound exhibits inhibitory activity (Table 3)” value is “PKA and AURORA-A and MSK2”. On the same count and under the same terms, to `COc1ccc(-c2nnc(SCC(=O)NNC(=O)c3ccccc3O)n2-c2ccccc2)cc1OC` belongs “FYN and FLT-3”; to `c1ccc(-c2nnc(SCCN3CCCC3)[nH]2)cc1` [3-phenyl-5-(2-(pyrrolidin-1-yl)ethylthio)-4H-1,2,4-triazole], “GSK3-α; also recorded: GSK3-β; also recorded: CHEK2”.

`CCOc1ccc(NCc2nnc(SCCN3CCOCC3)n2-c2ccccc2)cc1`: the “protein kinase against which the compound exhibits inhibitory activity (Table 3)” value is “FYN”. For the compound `Oc1ccc(-c2nnc(SCCN3CCOCC3)n2-c2ccccc2)cc1` [4-(5-(2-morpholinoethylthio)-4-phenyl-4H-1,2,4-triazol-3-yl)phenol], the “protein kinase against which the compound exhibits inhibitory activity (Table 3)” value was “GSK3-α”. The same measure, in the same setting: under `COc1ccc(C(=O)NNC(=O)CSc2nnc(-c3ccc(O)cc3)n2Cc2ccco2)cc1` stands “GSK3-β; also recorded: AURORA-A; also recorded: PDGFRR-α”; under `COc1ccccc1-n1c(SCC(=O)Nc2ccccc2)nnc1-c1cccc(Cl)c1`, “ROCK2”; under `O=C(CSc1nnc(-c2ccc(O)cc2)n1-c1ccccc1)NNC(=O)c1ccc(Cl)cc1`, “AURORA-A”.

The values are drawn from US20050288347A1, “Certain triazole-based compounds, compositions, and uses thereof” (priority 2004, published 2005).
